The values that follow come from US20180353462A1, “[…] AGENTS […] FLAVONOID DERIVATIVES TARGETING KINASES, SIRTUINS AND ONCOGENIC AGENTS FOR THE TREATMENT OF CANCERS” (priority 2015, published 2018).

One experiment relates to UACC-62 (Melanoma). Nature of the experiment: WST-1 anticancer cell proliferation assay, UACC-62. Type of experiment: cell-based. To be noted: 72 hours. The procedure:
(§1) Bioactivity of the above-described compounds has been verified by an anticancer cell proliferation assay using the WST-1 (4-[3-(4-iodophenyl)-2-(4-nitrophenyl)-2H-5-tetrazolio]-1, 3-benzene disulfonate) colorimetric assay by Roche Life Sciences®. Anticancer activity was tested against several standard cancer cell lines including brain, breast, Kaposi sarcoma, leukemia, lung, melanoma, tenosynovial giant cell tumor, ovarian, pancreatic, colon and prostate cancer. Cells were trypsinized and plated into 96 well plates in 50 μl of media and incubated overnight. The next day approximately 18 hours after plating, 50 μl of media containing the required flavonoid-based pharmaceutical composition was added per well. Cells were plated at a density so that 72 hours post drug addition, the cells will be in log phase (500)-2000 cells/well). The compounds and extracts were solubilized in Dimethyl sulfoxide (DMSO). The cells are allowed to proliferate for 72 hours 37° C. in humidified atmosphere of 5% CO2. The experiment is terminated using WST-1 (Roche®) 10 μl per well and absorbance is read at 450 nm %690 nm. The effect of drugs on growth is assessed as percent of cell viability. The IC50 values were determined from the extract dose versus control growth curves using Graphpad Prism® software. All experiments were carried out in duplicate and the mean results determined.

For the next experiment, the target named is T1, SIRT-3 (Homo sapiens, UniProt Q9NTG7).
T1 sequence (Q9NTG7 1-399): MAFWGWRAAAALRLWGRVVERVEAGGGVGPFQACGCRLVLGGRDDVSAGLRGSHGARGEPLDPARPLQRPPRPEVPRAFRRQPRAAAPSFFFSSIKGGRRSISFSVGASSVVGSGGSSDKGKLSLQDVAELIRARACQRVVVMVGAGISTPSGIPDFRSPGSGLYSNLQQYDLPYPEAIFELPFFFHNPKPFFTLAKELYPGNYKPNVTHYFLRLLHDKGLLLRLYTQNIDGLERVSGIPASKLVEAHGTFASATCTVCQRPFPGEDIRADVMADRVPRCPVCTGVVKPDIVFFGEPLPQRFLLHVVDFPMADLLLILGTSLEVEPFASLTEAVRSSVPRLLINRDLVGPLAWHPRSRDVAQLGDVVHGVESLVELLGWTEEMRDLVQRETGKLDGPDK
Nature of the experiment: Inhibition of sirtuins, SIRT-3. Type of experiment: biochemical. To be noted: Table 3 SIRT. The source says:
(§2) Inhibition of Sirtuins, Matrix Metalloproteinase, Bromodomains was Also Confirmed Using Standard Protocols and the Results are Present in Table 2.

In the next experiment the test system is MiaPaca-2 (Pancreatic). In words: WST-1 anticancer cell proliferation assay, MiaPaca-2. Type of experiment: cell-based. To be noted: 72 hours. The procedure:
as §1

The subject of another experiment is A549 (Lung). Nature of the experiment: WST-1 anticancer cell proliferation assay, A549. Type of experiment: cell-based. To be noted: 72 hours. The procedure: as §1
In another experiment the test system is RL (Lymphoma). In words: WST-1 anticancer cell proliferation assay, RL. To be noted: 72 hours. Type of experiment: cell-based. Here is the method:
as §1

The test system of another experiment is DLD-1 (Colon). Nature of the experiment: WST-1 anticancer cell proliferation assay, DLD-1. Type of experiment: cell-based. To be noted: 72 hours. The procedure:
as §1

For the next experiment, the target named is T2, PIM-3 (Homo sapiens, UniProt Q86V86).
T2 construct: full-length constructs were used for small, single domain kinases; T7 phage fusion (most assays) or DNA tag for qPCR (HEK-293-made kinases); made in house
Nature of the experiment: Kinase competition binding assay, PIM-3. To be noted: Table 1 kinase panel. The procedure: (§3) Cannabis flavonoids and their analogs were subjected to kinase inhibition assay. The compounds were first screened at a single concentration of 10 μM in the primary assay. […]. To determine the kd or IC50 values, competition binding assays were established, authenticated and executed as described previously. Fabian et al., “A Small Molecule-Kinase Interaction Map For Clinical Kinase Inhibitors.”, Nat Biotechnol, 23(3):329-36, Epub (2005). See also, Karaman et al., “A Quantitative Analysis Of Kinase Inhibitor Selectivity”, Nat. Biotechnol. […] For most assays, kinases were fused to T7 phage strains (Fabian, supra) and for the other assays, kinases were produced in HEK-293 cells after which they were tagged with DNA for quantitative PCR detection. In general, full-length constructs were used for small, single domain kinases, and catalytic domain constructs for large multi-domain kinases. The binding assays utilized streptavidin-coated magnetic beads treated with biotinylated small molecule ligands for 30 minutes at room temperature which generated affinity resins for the kinase assays. The liganded beads were blocked with excess biotin and washed with blocking buffer (SeaBlock (Pierce), 1% BSA, 0.05% Tween 20, 1 mM DTT) to remove unbound ligand and to reduce non-specific phage binding. […] Test compounds were prepared as 40× stocks in 100% DMSO and diluted directly into the assay (Final DMSO concentration=2.5%). All reactions were performed in polypropylene 384-well plates in a final volume of 0.04 ml. […] The beads were then re-suspended in elution buffer (1×PBS, 0.05% Tween 20, 0.5 μM non-biotinylated affinity ligand) and incubated at room temperature with shaking for 30 minutes. The kinase concentration in the eluates was measured by quantitative PCR. An illustration of the kinase interaction process is presented below. Kd/IC50 values were determined using a standard dose response curve using the hill equation. Curves were fitted using a non-linear least square fit with the Levenberg-Marquardt algorithm.
(§4) The compound(s) were screened at 10 μM and results for primary screen binding interactions are reported as ‘% Ctrl’, where lower numbers indicate stronger hits in the matrix.

The test system of a further experiment is PC-3 (Prostate). In words: WST-1 anticancer cell proliferation assay, PC-3. In kind it is cell-based. To be noted: 72 hours. Here is the method:
as §1

The subject of a further experiment is IGROV-1 (Ovarian). Nature of the experiment: WST-1 anticancer cell proliferation assay, IGROV-1. Type of experiment: cell-based. To be noted: 72 hours. Here is the method: as §1
The target of another experiment is T3, DYRK1B (Homo sapiens, UniProt Q9Y463).
T3 construct: made in house
In words: Kinase competition binding assay, DYRK1B. To be noted: Table 1 kinase panel. The procedure:
as §3, §4

The next experiment concerns SNU-16 (Stomach). Nature of the experiment: WST-1 anticancer cell proliferation assay, SNU-16. In kind it is cell-based. To be noted: 72 hours. Here is the method:
as §1

The next experiment concerns the target BRD4 (Homo sapiens, UniProt O60885). Nature of the experiment: Inhibition of bromodomains, BRD4. In kind it is binding. To be noted: Table 3 Bromodomain.
From the text: as §2

For the next experiment, the target named is BRD3 (Homo sapiens, UniProt Q15059). In words: Inhibition of bromodomains, BRD3. Type of experiment: binding. To be noted: Table 3 Bromodomain.
From the text: as §2

A further experiment deals with U2-OS (Bone). Nature of the experiment: WST-1 anticancer cell proliferation assay, U2-OS. In kind it is cell-based. To be noted: 72 hours. Here is the method:
as §1

Experiment [1] deals with CFPAC-1 pancreatic cancer xenograft. Nature of the experiment: Human pancreatic cancer xenograft CFPAC-1 in scid mice. In kind it is in vivo. To be noted: CFPAC-1 cells implanted on scid mice. The source says: The results of the anticancer activity are presented in Tables 3 and 4 (above) and in FIG. 6, Hela cells shown at (A) and CMK cells at (B) and MV4-11 and MOLT-14 acute myeloid leukemia cells.

Another experiment has as its target MMP-2 (Homo sapiens, UniProt P08253). Nature of the experiment: Inhibition of matrix metalloproteinase, MMP-2. Type of experiment: biochemical. To be noted: Table 3 Matrix metalloproteinase.
From the text: as §2

The next experiment has as its target MMP-7 (Homo sapiens, UniProt P09237). Nature of the experiment: Inhibition of matrix metalloproteinase, MMP-7. Type of experiment: biochemical. To be noted: Table 3 Matrix metalloproteinase.
From the text: as §2

T3 sequence (Q9Y463 whole entry): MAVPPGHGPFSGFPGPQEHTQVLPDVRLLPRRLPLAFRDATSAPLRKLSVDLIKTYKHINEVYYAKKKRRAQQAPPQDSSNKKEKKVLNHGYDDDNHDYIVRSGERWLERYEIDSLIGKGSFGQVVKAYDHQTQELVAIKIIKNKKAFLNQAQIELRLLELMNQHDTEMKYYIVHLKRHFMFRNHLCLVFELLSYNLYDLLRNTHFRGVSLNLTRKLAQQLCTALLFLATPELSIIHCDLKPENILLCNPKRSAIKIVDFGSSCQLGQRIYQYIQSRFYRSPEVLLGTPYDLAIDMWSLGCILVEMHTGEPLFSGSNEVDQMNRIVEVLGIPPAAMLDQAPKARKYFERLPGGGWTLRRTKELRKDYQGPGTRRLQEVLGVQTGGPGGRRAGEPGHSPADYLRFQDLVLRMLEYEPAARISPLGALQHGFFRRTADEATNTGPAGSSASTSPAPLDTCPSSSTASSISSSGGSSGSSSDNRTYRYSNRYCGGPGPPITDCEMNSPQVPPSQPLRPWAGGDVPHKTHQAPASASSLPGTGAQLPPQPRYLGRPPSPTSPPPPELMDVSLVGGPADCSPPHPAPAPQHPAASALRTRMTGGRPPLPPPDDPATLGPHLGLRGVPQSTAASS
Sequence of MMP-7 (P09237 95-267): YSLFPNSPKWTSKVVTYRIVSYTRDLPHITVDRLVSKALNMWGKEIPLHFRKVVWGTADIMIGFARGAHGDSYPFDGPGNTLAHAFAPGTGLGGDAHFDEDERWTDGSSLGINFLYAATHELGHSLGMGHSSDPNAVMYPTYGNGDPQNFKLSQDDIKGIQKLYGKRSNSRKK
Sequence of MMP-2 (P08253 110-660): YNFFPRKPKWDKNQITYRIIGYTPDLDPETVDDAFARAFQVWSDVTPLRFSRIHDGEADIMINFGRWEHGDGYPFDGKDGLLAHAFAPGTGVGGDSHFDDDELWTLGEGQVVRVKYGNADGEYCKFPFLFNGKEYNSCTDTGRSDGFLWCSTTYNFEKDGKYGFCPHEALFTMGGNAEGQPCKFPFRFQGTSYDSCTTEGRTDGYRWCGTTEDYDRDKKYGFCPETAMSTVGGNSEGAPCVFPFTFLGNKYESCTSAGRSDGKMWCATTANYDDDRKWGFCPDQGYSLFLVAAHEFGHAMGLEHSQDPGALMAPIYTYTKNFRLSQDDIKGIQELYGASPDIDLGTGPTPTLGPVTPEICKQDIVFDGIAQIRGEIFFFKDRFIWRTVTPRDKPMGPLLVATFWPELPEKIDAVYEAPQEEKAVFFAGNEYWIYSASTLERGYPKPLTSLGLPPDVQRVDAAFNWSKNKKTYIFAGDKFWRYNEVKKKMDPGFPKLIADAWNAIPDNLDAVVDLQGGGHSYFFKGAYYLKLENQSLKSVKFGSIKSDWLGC
Sequence of BRD3 (Q15059 whole entry): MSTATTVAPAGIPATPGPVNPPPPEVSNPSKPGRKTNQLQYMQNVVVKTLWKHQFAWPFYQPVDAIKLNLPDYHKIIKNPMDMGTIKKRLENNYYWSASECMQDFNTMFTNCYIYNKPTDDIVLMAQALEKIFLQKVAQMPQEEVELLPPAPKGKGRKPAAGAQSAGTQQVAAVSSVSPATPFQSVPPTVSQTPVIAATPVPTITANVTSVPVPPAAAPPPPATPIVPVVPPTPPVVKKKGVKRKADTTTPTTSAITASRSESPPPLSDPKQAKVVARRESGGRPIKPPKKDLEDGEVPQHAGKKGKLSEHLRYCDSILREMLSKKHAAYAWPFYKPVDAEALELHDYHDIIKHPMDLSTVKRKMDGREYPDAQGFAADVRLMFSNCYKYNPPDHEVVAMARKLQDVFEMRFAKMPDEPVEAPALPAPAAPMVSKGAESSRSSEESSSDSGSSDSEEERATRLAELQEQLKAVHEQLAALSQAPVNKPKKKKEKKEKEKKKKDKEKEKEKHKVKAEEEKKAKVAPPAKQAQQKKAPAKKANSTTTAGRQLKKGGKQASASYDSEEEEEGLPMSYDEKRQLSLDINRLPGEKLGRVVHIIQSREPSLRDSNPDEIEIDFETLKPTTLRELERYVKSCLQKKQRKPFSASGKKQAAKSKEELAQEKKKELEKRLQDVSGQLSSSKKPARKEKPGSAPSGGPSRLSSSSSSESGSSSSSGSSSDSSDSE

In the case of `COc1cc(-c2cc(=O)c3c(O)c(C/C=C(\C)CCC=C(C)C)c(O)cc3o2)ccc1O` [FBL-03A], the IC50 in the experiment on UACC-62 (Melanoma) worked out at 27 µM; on SIRT-3 it was 94.9 µM; in the experiment with MiaPaca-2 (Pancreatic), 16 µM; with A549 (Lung), 17 µM; with RL (Lymphoma) it was 5.9 µM; with DLD-1 (Colon), 15 µM. The IC50 on PIM-3 was above 20000 nM; in the experiment with PC-3 (Prostate) it was 26 µM; in the experiment with IGROV-1 (Ovarian), 29 µM; at DYRK1B, above 20000 nM.

In the case of `COc1cc(-c2cc(=O)c3c(O)c(CC=C(C)C)c(O)cc3o2)ccc1O` [FBL-03B], the concentration for half-maximal inhibition (IC50) at SIRT-3 is 77 µM; in the experiment with SNU-16 (Stomach), 15 µM; against BRD4 it was 10.4 µM; at BRD3, 7.05 µM; with U2-OS (Bone) it was 19.4 µM; at PIM-3 it was 173 nM. The IC50 stood at 115 µM at MMP-2, 1670 nM on DYRK1B and 17.5 µM on MMP-7. Further, the “inhibition of tumor compared to the control” value in [1] is reported as “significant inhibition of tumor”.

Turning to `COc1cc(-c2cc(=O)c3c(O)cc(O)c(C/C=C(\C)CCC=C(C)C)c3o2)ccc1O` [FBL-03C], the IC50 with UACC-62 (Melanoma) was 14 µM; against SIRT-3 it was 65.4 µM; in the experiment on MiaPaca-2 (Pancreatic), 9.5 µM; in the experiment on A549 (Lung), 9.4 µM; in the experiment on RL (Lymphoma), 12 µM; in the experiment on DLD-1 (Colon) it was 13 µM. Further, the IC50 at PIM-3 was above 1000 nM; in the experiment with PC-3 (Prostate) it was 20 µM; in the experiment with IGROV-1 (Ovarian), 15 µM; at DYRK1B it was 6400 nM.

For `COc1ccc(-c2cc(=O)c3c(O)c(C/C=C(\C)CCC=C(C)C)c(O)cc3o2)cc1OC` [FBL-03D], the half-inhibitory concentration (IC50) on PIM-3 and at DYRK1B was above 30000 nM throughout.

Turning to `COc1cc(-c2cc(=O)c3c(O)cc(O)c(CC=C(C)C)c3o2)ccc1O` [FBL-03G], the IC50 was 66.4 µM against SIRT-3; 4.09 µM in the experiment with SNU-16 (Stomach); 6.14 µM on BRD4; 8.69 µM against BRD3; 8.7 µM in the experiment on U2-OS (Bone); 35 nM at PIM-3. Also, the IC50 against MMP-2 is 6.64 µM; on DYRK1B it was 22.8 nM; against MMP-7 it was 3.35 µM. In addition, the “inhibition of tumor compared to the control” value in experiment [1] was “significant inhibition of tumor”.
